Test results as given in patent publication US11412735B2, “Pre-emergent herbicide” (W. Neudorff GMBH KG, priority 2016, dated 2022).

Legend:
Type in all cases: in vivo
[1] = system: grass (lawn), perennial rye grass; experiment: Grass phytotoxicity / selective herbicide assay (Example 4)
Description: The “selective herbicide assay” comprises:
applying an amount of a composition (or the components thereof) to a target area comprising pre-emergent undesired vegetation and desired vegetation; and
following application (e.g. after at least 7, 14 or 21 days from application) assessing separately undesired vegetation emergence and desired vegetation survival visually using a percentage rating scale from 0% (no undesired vegetation emergence/no desired vegetation survival) to 100% (complete undesired vegetation emergence/complete desired vegetation survival).
(§1) Dry FeHEDTA (micro-granular; Dissolvine H—Fe-13) was purchased from the company AkzoNobel. Corn gluten meal (Amaizeingly Green; N—P—K 10-0-0) and the mustard seed meal (Pescadero Gold; N—P—K 4.5-1.5-1.15) were purchased from AgGlobal (155, Gordon Baker Road, Suite 402,Toronto, ON M2H 3N7, Canada. www.buyagglobal.com) and Farm Fuel Inc (275 Coward Rd, Watsonville, Calif. 95076, USA. www.farmfuelinc.com), respectively. The corn gluten meal and mustard seed meal arrived in pellet form, but were ground and sieved through a mesh (sieve opening size 850 μm) before use to obtain a particle size of ≤850 μm. FeHEDTA (4.8%) was mixed with 1% of drying agent (MICRO-CEL® E) and then mixed with fertilizer seed meal (corn gluten meal or mustard seed meal) (94.2%) and blended thoroughly until the formulation became homogeneous. The application rate was 100 g/m^2 for the combined treatment (94.2 g/m^2 for FSM and 4.8 g/m^2 for FeHEDTA), 4.8 g/m^2 for FeHEDTA treatment and 100 g/m^2 for FSM treatment. In the formulation, the respective FSM was simply blended with transition metal chelate and with other ingredients if applicable. Samples were usually prepared within 48 hours of treatment. All tests were done in the greenhouse.
(§2) Pots 4″ in size were filled with wetted potting media, grass (lawn) seeds (perennial rye grass) were spread until soil was completely covered with grass seeds (5 g/pot) and kept for 1 month until grass was grown. […] Number of emerged seedlings in each pot was recorded 14 days after application.

[2] = system: dandelion seeds; experiment: Greenhouse dandelion seed germination (in grass) test (Example 4); conditions: dandelion seeded in grass pots
Description: (§3) The “weed emergence suppression assay” comprises:
(§4) applying an amount of a composition or the components thereof to a target area comprising pre-emergent undesired vegetation; and following application (e.g. after at least 7, 14 or 21 days from application) assessing emergence visually using a percentage rating scale from 100% (no undesired vegetation emergence) to 0% (complete undesired vegetation emergence=untreated control).
Dry FeHEDTA (micro-granular; Dissolvine H—Fe-13) was purchased from the company AkzoNobel. Corn gluten meal (Amaizeingly Green; N—P—K 10-0-0) and the mustard seed meal (Pescadero Gold; N—P—K 4.5-1.5-1.15) were purchased from AgGlobal (155, Gordon Baker Road, Suite 402,Toronto, ON M2H 3N7, Canada. www.buyagglobal.com) and Farm Fuel Inc (275 Coward Rd, Watsonville, Calif. 95076, USA. www.farmfuelinc.com), respectively. The corn gluten meal and mustard seed meal arrived in pellet form, but were ground and sieved through a mesh (sieve opening size 850 μm) before use to obtain a particle size of ≤850 μm. […]
as §2

[3] = system: dandelion seeds; experiment: Greenhouse dandelion seed germination test, application on soil (Examples 1-3); conditions: soil pots; for Weed emergence suppression assay score: untreated = 0%
Description: as §3, §4, §1
Pots 4″ in size were filled with wetted potting media and dandelion seeds were spread (0.2 g of seeds/four pots in examples 1 and 2 and 0.25 g/4 pots in example 3) evenly over each pot and lightly watered 3 hrs before treating. Seeded pots were covered with a thin layer of potting soil and treatments were applied after seeding (e.g. just after seeding). Each treatment consisted with 4 replicates. All treatments were lightly watered as needed until the seedlings emerged. Number of emerged seedlings in each pot was recorded 7 or 21 days after treatment application.

O=C([O-])CN(CCO)CCN(CC(=O)[O-])CC(=O)[O-].[Fe+3] [Dry FeHEDTA (B), FeHEDTA]
Selective herbicide assay score ([1]; score on desired vegetation (grass)): 0% | Grass phytotoxicty, 7 days after treatment ([1]; visual rating of grass damage, 7 days after treatment): 0 | Grass phytotoxicty, 14 days after treatment ([1]; visual rating of grass damage, 14 days after treatment): 0 | Weed emergence suppression assay score ([2]; 14 days after application, untreated = 0%): 2.63% | Weed (dandelion) Seedling emergence: No of dandelion seedlings (14 days after application) ([2]; untreated 76): 74 | Seedling emergence: No of seedlings (21 days after application) ([3]; Example 1, 21 days after application, 100 g/m^2 combined or FSM, 4.8 g/m^2 FeHEDTA, untreated 42): 44 | Weed emergence suppression assay score ([3]; Example 1, 21 days after application): −4.76% | Seedling emergence: No of seedlings (21 days after application) ([3]; Example 2, 21 days after application, 100 g/m^2 combined or FSM, 4.8 g/m^2 FeHEDTA, untreated 60): 76 | Weed emergence suppression assay score ([3]; Example 2, 21 days after application): −26.66% | Seedling emergence: No of seedlings 7 days after application ([3]; Example 3, 7 days after application, 100 g/m^2 combined or FSM, 4.8 g/m^2 FeHEDTA, untreated 134): 59 | Weed emergence suppression assay score ([3]; Example 3, 7 days after application): 55.07%
